From EP0908457B1, “3-(1,2-benzisothiazol- and isoxazol-5-Y1)-2,4(1H,3H)-pyrimidinedione or thione and 3-(1,2-benzisothiazol- and isoxazol-5-y1)-4(3H)-pyrimidinone or thione herbicidal agents” (BASF AKTIENGESELLSCHAFT, priority 1997, dated 1999)

Tests used:
[1] = system: Oryza sativa, (L.) Tebonnet; assay: Rice tolerance to post-transplant applications under flooded paddy conditions (Example 187), ORYSAT (Rice, Tebonnet); settings: rated 3-4 weeks after treatment; note: meaning of each grade not given here
[2] = system: Monochoria vaginalis, Presl.; assay: Preemergence weed control under flooded paddy conditions, MOOVA (Monochoria); assay type: in vivo; settings: preemergence, flooded paddy, rated 3-4 weeks after treatment; note: meaning of each grade not given here
Cyperus iria [3] = assay: Preemergence weed control under flooded paddy conditions, CYPIR (Rice Flatsedge); assay type: in vivo; settings: preemergence, flooded paddy, rated 3-4 weeks after treatment; note: meaning of each grade not given here
[4] = system: Cyperus serotinus, Rottb.; assay: Preemergence weed control under flooded paddy conditions, CYPSE (Flatsedge); assay type: in vivo; settings: preemergence, rated 3-4 weeks after treatment; note: meaning of each grade not given here
[5] = system: Monochoria vaginalis, Presl.; assay: Postemergence weed control under flooded paddy conditions, MOOVA (Monochoria); assay type: in vivo; settings: rated three to four weeks after treatment
Cyperus iria [6] = assay: Postemergence weed control under flooded paddy conditions, CYPIR (Rice Flatsedge); assay type: in vivo; settings: rated three to four weeks after treatment
[7] = system: Echinochloa oryzoides (Ard.) Fritsch.; assay: Preemergence weed control under flooded paddy conditions, ECHORC (Watergrass (Calif.)); assay type: in vivo; settings: preemergence, flooded paddy, rated 3-4 weeks after treatment; note: meaning of each grade not given here
[8] = system: Echinochloa oryzoides (Ard.) Fritsch.; assay: Postemergence weed control under flooded paddy conditions, ECHORC (Watergrass (Calif.)); assay type: in vivo; settings: rated three to four weeks after treatment
Sagittaria pygmaea, L. [9] = assay: Postemergence weed control under flooded paddy conditions, SAGPY (Arrowhead (Pygmaea)); assay type: in vivo; settings: rated three to four weeks after treatment
[10] = system: Cyperus serotinus, Rottb.; assay: Postemergence weed control under flooded paddy conditions, CYPSE (Flatsedge); assay type: in vivo; settings: rated three to four weeks after treatment
Sagittaria pygmaea, L. [11] = assay: Preemergence weed control under flooded paddy conditions, SAGPY (Arrowhead (Pygmaea)); assay type: in vivo; settings: preemergence, flooded paddy, rated 3-4 weeks after treatment; note: meaning of each grade not given here
[12] = system: Oryza sativa, (L.) Tebonnet; assay: Rice tolerance to post-transplant applications under flooded paddy conditions (Example 188), ORYSAT (Rice, Tebonnet); settings: rated three to four weeks after treatment

Cc1ccc(OCC(=O)OCC2(c3ccccc3)CC2)c(-c2nsc3ccc(-n4c(=O)cc(C(F)(F)F)n(C)c4=O)cc23)c1 [Example 517, Acetic acid, {{2-{5-[3,6-dihydro-3-methyl-2,6-dioxo-4-(trifluoromethyl)-1(2H)-pyrimidinyl]-1,2-benzisothiazol-3-yl}-p-tolyl}oxy}-, (1-phenylcyclopropyl)methyl ester]
herbicidal effect rating ORYSAT ([1]; Rate 0.0320 kg/ha): 0.0
herbicidal effect rating ORYSAT ([1]; Rate 0.0620 kg/ha): 0.0
herbicidal effect rating ORYSAT ([1]; Rate 0.1250 kg/ha): 1.5
herbicidal effect rating ORYSAT ([1]; Rate 0.2500 kg/ha): 3.0
herbicidal effect rating, MOOVA ([2]; Rate 0.0320 kg/ha): 9.0
herbicidal effect rating, MOOVA ([2]; Rate 0.0620 kg/ha): 9.0
herbicidal effect rating, MOOVA ([2]; Rate 0.1250 kg/ha): 9.0
herbicidal effect rating, MOOVA ([2]; Rate 0.2500 kg/ha): 9.0
herbicidal effect rating, CYPIR (Cyperus iria [3]; Rate 0.0320 kg/ha): 5.5
herbicidal effect rating, CYPIR (Cyperus iria [3]; Rate 0.0620 kg/ha): 6.5
herbicidal effect rating, CYPIR (Cyperus iria [3]; Rate 0.1250 kg/ha): 5.5
herbicidal effect rating, CYPIR (Cyperus iria [3]; Rate 0.2500 kg/ha): 7.0
herbicidal effect rating, CYPSE ([4]; Rate 0.0320 kg/ha): 3.0
herbicidal effect rating, CYPSE ([4]; Rate 0.0620 kg/ha): 4.5
herbicidal effect rating, CYPSE ([4]; Rate 0.1250 kg/ha): 4.5
herbicidal effect rating, CYPSE ([4]; Rate 0.2500 kg/ha): 0.0
herbicidal effect rating, MOOVA ([5]; Rate 0.0320 kg/ha): 9.0
herbicidal effect rating, MOOVA ([5]; Rate 0.0620 kg/ha): 9.0
herbicidal effect rating, MOOVA ([5]; Rate 0.1250 kg/ha): 9.0
herbicidal effect rating, MOOVA ([5]; Rate 0.2500 kg/ha): 9.0
herbicidal effect rating, CYPIR (Cyperus iria [6]; Rate 0.0320 kg/ha): 3.0
herbicidal effect rating, CYPIR (Cyperus iria [6]; Rate 0.0620 kg/ha): 5.0
herbicidal effect rating, CYPIR (Cyperus iria [6]; Rate 0.1250 kg/ha): 9.0
herbicidal effect rating, CYPIR (Cyperus iria [6]; Rate 0.2500 kg/ha): 9.0
herbicidal effect rating, ECHORC ([7]; Rate 0.0320 kg/ha): 9.0
herbicidal effect rating, ECHORC ([7]; Rate 0.0620 kg/ha): 9.0
herbicidal effect rating, ECHORC ([7]; Rate 0.1250 kg/ha): 8.0
herbicidal effect rating, ECHORC ([7]; Rate 0.2500 kg/ha): 9.0
herbicidal effect rating, ECHORC ([8]; Rate 0.0320 kg/ha): 0.0
herbicidal effect rating, ECHORC ([8]; Rate 0.0620 kg/ha): 0.0
herbicidal effect rating, ECHORC ([8]; Rate 0.1250 kg/ha): 0.0
herbicidal effect rating, ECHORC ([8]; Rate 0.2500 kg/ha): 0.0
herbicidal effect rating, SAGPY (Sagittaria pygmaea, L. [9]; Rate 0.0320 kg/ha): 0.0
herbicidal effect rating, SAGPY (Sagittaria pygmaea, L. [9]; Rate 0.0620 kg/ha): 0.0
herbicidal effect rating, SAGPY (Sagittaria pygmaea, L. [9]; Rate 0.1250 kg/ha): 0.0
herbicidal effect rating, SAGPY (Sagittaria pygmaea, L. [9]; Rate 0.2500 kg/ha): 0.0
herbicidal effect rating, CYPSE ([10]; Rate 0.0320 kg/ha): 0.0
herbicidal effect rating, CYPSE ([10]; Rate 0.0620 kg/ha): 0.0
herbicidal effect rating, CYPSE ([10]; Rate 0.1250 kg/ha): 0.0
herbicidal effect rating, CYPSE ([10]; Rate 0.2500 kg/ha): 0.0
herbicidal effect rating, SAGPY (Sagittaria pygmaea, L. [11]; Rate 0.0320 kg/ha): 0.0
herbicidal effect rating, SAGPY (Sagittaria pygmaea, L. [11]; Rate 0.0620 kg/ha): 0.0
herbicidal effect rating, SAGPY (Sagittaria pygmaea, L. [11]; Rate 0.1250 kg/ha): 0.0
herbicidal effect rating, SAGPY (Sagittaria pygmaea, L. [11]; Rate 0.2500 kg/ha): 0.0
herbicidal effect rating, ORYSAT (rice tolerance) ([12]; Rate 0.0320 kg/ha): 0.0
herbicidal effect rating, ORYSAT (rice tolerance) ([12]; Rate 0.0620 kg/ha): 0.0
herbicidal effect rating, ORYSAT (rice tolerance) ([12]; Rate 0.1250 kg/ha): 0.0
herbicidal effect rating, ORYSAT (rice tolerance) ([12]; Rate 0.2500 kg/ha): 0.0
